Laboratory results reported in US9365830B2, “Agents and methods for inhibiting human pluripotent stem cell growth” (VIACYTE, INC., priority 2010, dated 2016).

Tests used:
hESCs (BG02) = test: Real-time impedance assay (RT-CES) for inhibitory and cytotoxic agents on hESCs; details: 10 μM compound added after about 24 hours, cultured about 5 more days; compared to DMSO control
Text: The foregoing 176 selected compounds from the complete LOPAC1280™ library were then used to screen human pluripotent stem cells, e.g., hESCs, and differentiating cultures during Stage 1 (definitive endoderm) using a real-time impedance assay (ACEA biosciences RT-CES system). The RT-CES system uses 96-well trays that contain embedded microsensors to monitor changes in electrical impedance, which is translated into a measure of cell index. Any overt alteration within a cell culture can be detected, including but not limited to cell proliferation, migration, cell spreading, apoptosis, differentiation and the like. […] An increase in the cell index indicates proliferation of the cells, for example, proliferation of the undifferentiated cells. […] See also FIG. 1. […] A “scallop” cell index is one which remains high due to a confluent culture of cells, but will go down and up (scallop) between daily feedings. Conversely, cells undergoing differentiation have distinctive patterns, such as peaks and troughs in the cell index, potentially indicative of an epithelial-to-mesenchymal transition, flattening, cell migration, apoptosis or similar differentiation and growth related changes.
Impedance Assay for Inhibitory and Cytotoxic Agents. Human pluripotent stem cells, e.g., 2×10^4 hESCs (BG02), were cultured in DC-HAIF, a heregulin-based defined media, with daily feeding in the impedance monitoring plates. After about 24 hours, and 10 μM of the selected LOPAC1280™ compound was added to each well (see arrowhead in FIGS. 3 A & B) and cultured for about an additional 5 days.

[1] = system: differentiating Stage 1 cultures (definitive endoderm); test: Secondary screen on differentiating Stage 1 cultures in 6-well trays; format: cell-based, human; details: compounds added to differentiating Stage 1 cultures
Text: (§1) The impedance assay on the hESCs using the compounds in Table 4 above gave greater than twenty (20) hits. However, the ideal candidate compound of the present invention should not only be inhibitory or cytotoxic to human pluripotent stem cells, such as hESCs or hIPSCs, but should at the same time have no effect on cell viability of differentiated or differentiating cell populations including Stage 1, 2, 3, 4 and 5 type cells cultures (definitive endoderm, foregut endoderm, posterior foregut, pancreatic endoderm and endocrine cells, respectively). […] Approximately 3×10^4 hES cells were plated per well and grown for 24 hrs in DC-HAIF defined medium (i.e. StemPro® hESC SFM medium (Life Technologies, Carlsbad, Calif.). Stage 1 or definitive endoderm differentiation was then induced by changing the medium and culturing in RPMI, 100 ng/mL Activin A, and 10 ng/mL of FGF2. […] of GSK-3 beta Inhibitor 15 (Calbiochem #361558) as added to the culture for the first 24 hours of differentiation only. 10 μM of each of the candidate compounds were added about 48 hours or 2 days after differentiation was induced (see FIGS. 3 C & D, large arrowhead), and the cells were cultured for an additional 2 days.
Secondary Screen with Selected Compounds. A secondary screen using 9 of the 10 candidate compounds in Table 5 was performed by adding the compounds to differentiating Stage 1 cultures (definitive endoderm) as described above. For the secondary screen, larger standard 6-well trays were used instead of the RT-CEAS 96-well culture plates used in primary screens employing impedance assays. Only 9 of the 10 compounds in Table 5 were tested because the 10th was not available in sufficient quantity at the time the assays were performed. In the larger, 6-well trays, 5 of the 9 compounds listed in Table 5 had no effect on viability of differentiating cells or differentiated definitive endoderm. […] This assay also confirmed that the viability of differentiating cells and differentiated definitive endoderm cells was apparently consistent regardless of the numbers of cells tested, or the size, volume, or source of the culture vessel.

[2] = system: adherent Stage 1 cell cultures of BG02; test: Q-PCR marker gene expression, adherent Stage 1 cultures of BG02; format: cell-based, human
Text: FIGS. 4A-4G are bar graphs showing the relative gene expression levels of OCT4 (FIG. 4A), NANOG (FIG. 4B), FOXA2 (FIG. 4C), SOX17 (FIG. 4D), SOX7 (FIG. 4E), PAX6 (FIG. 4F) and ZIC1 (FIG. 4G) BG02 with treatment of candidate selective cytotoxic agents from the LOPAC1280™ sublibrary (Table 4) to adherent Stage 1 cell cultures of BG02. Expression levels were normalized using the geometric mean of three housekeeping genes, GUSB, CYCG and TBP. The graphs depict fold regulation compared to the hESC sample. The large arrow heads indicate time of the drug treatment. D=DMSO (control); C=Chelerythrine Chloride; A=AG490; B=BTO-1; De=Dephostatin; S=SU6656.
Screen for Effects on Stages 1-5 Differentiation. To further determine whether these 5 candidate compounds added at Stage 1 affected other differentiated cell types (e.g. Stages 2-5: foregut endoderm, posterior foregut endoderm, pancreatic endoderm and endocrine precursor cells, respectively), hES were differentiated in the presence or absence of compounds, and RNA samples were taken at various stages for gene expression analysis by Q-PCR.
Gene expression levels were plotted relative to a DMSO treated control at the end of Stage 1 (FIG. 4), and relative to undifferentiated hESC aggregates (FIGS. 5 and 6). See “Control” in FIGS. 4, 5 & 6. […] Chelerythrine chloride, Dephostatin, SU 6656 and Tyrphostin AG 490 compounds each caused an increase in SOX17 gene expression as compared to the DMSO control, consistent with the gene expression profile for Stage 1 definitive endoderm cell cultures (FIG. 4D). However, Tyrphostin AG 490 (AG) and SU 6656 (SU) each caused a decrease in FOXA2 (HNF3β) expression as compared to the DMSO control, indicating adverse effects of these two compounds on definitive endoderm (FIG. 4C). Yet none of the compounds appeared to substantially impact expression of non-definitive endoderm markers including SOX7, PAX6 or ZIC1 (FIGS. 4 E, 4F & 4G), and were not, therefore, excluded on the basis of inducing differentiation to other cell types. […] This compound neither decreased OCT4 or NANOG expression, nor increased FOXA2 (HNF3β) or SOX17 expression, as would have been expected of a pluripotent stem cell-selective inhibitor/cytotoxic agent.

[3] = system: undifferentiated hESCs growing in adherent culture; test: EC50 of cytotoxic effect on undifferentiated hESCs in adherent culture, real-time impedance assay; format: cell-based, human; details: Homo sapiens, read-out: EC50 concentrations for hES cells (cytotoxic effect)
Description: In summary, the final three (3) candidates identified from both the primary and secondary screens (EXAMPLE 1) and the full screen of the LOPAC1280™ collection (EXAMPLE 2) were Chelerythrine Chloride, Caffeic acid and Ivermectin. FIG. 11 lists the known or inferred mode(s) of action for these three compounds, as well as their structures. EC50 values for the respective cytotoxic effects on undifferentiated hESCs growing in adherent culture were determined using real-time impedance assays.
Depletion of OCT4-positive cells during Stage 1 differentiation was examined using the plating assay described above. Stage 1 differentiations of hES cells were treated from day 1 to 2 with the candidate compounds as described in Example 2 (chelerythrine chloride, caffeic acid and Ivermectin), at their EC50 concentrations for hES cells. Plated untreated and DMSO-treated aggregates were indistinguishable, and both contained discrete clusters of OCT4-positive cells. See FIG. 13A top and bottom panels for a DMSO treated example. The intensity of OCT4-positive staining in differentiating aggregate cell cultures treated with DMSO (control) was equivalent to undifferentiated hES cells.

hESCs = test: Secondary screen, lowest effective dose on hESCs; format: cell-based, human; details: lowest concentration that elicited cytotoxicity; range 0.1 to 50 μM; read-out: ED hESC (lowest effective dose)
Description: To expand the number of potential candidate hESC cytotoxic and inhibitory compounds, the complete LOPAC1280™ collection (containing 1,280 compounds) was screened. In the primary screen, cytotoxicity was tested on undifferentiated hESCs (about 3×10^4 BG01 cells) in 16 standard 96-well trays, in DC-HAIF defined medium on growth factor-reduced MATRIGEL™ diluted 1:200, which were fed daily (FIG. 7A). 10 μM of each compound was added to the hESCs one day after plating, and the cells were cultured for an additional 2 days. Plates were then fixed and stained for alkaline phosphatase (AP) to identify relative decreases in proliferation or growth of hESCs (as reduced AP staining), indicative of lower proportions of hESCs. See the circled wells in FIG. 7A.
(§2) Using a range of different concentrations from 0.1 to 50 μM, the forty compounds in Table 6 were re-screened (secondary screen) using hESCS and NPCs. The effective dose (ED) was defined as the lowest concentration of a compound that elicited cytotoxicity during the secondary screen. […] The darker wells were indicative of the increased numbers or percentages of proliferating or growing pluripotent stem cells in the wells. In addition, these 40 compounds were screened on differentiating definitive endoderm (DE) cell cultures in 96-well plate impedance assays (described above) to determine which of these compounds were not cytotoxic to definitive endoderm cells at the lowest effective dose on either hESC or NPC. […] See “ACEA DE” column in Table 6.

NPCs = test: Secondary screen, lowest effective dose on NPCs; format: cell-based, human; details: lowest concentration that elicited cytotoxicity; range 0.1 to 50 μM; read-out: ED NPC (lowest effective dose)
Description: In addition, the complete LOPAC1280™ collection was also screened for effects on neural progenitor cells (NPCs) that were derived from the hESCs. Neural progenitors were plated in serum-free MedII conditioned medium at 6×10^4 cells/well and fed daily. Two days after plating, 10 μM of each compound was added and the cells were cultured for an additional 2 days. […] Reduced crystal violet staining was indicative of lower proportions of NPCs. See circled wells in FIG. 7B. The left and right columns of the LOPAC1280™ plates from which the compounds were dispensed were empty and served as untreated controls. […] See Table 6 below listing the name and class of activity of each candidate compound identified in this screen (except chelerythrine chloride, which is listed in Table 5). ChCl was not included in the subsequent round of screening. Therefore only 40 compounds were tested further.
as §2

[4] = system: differentiating definitive endoderm (DE) cell cultures; test: 96-well plate impedance assay (ACEA) on differentiating definitive endoderm at lowest effective dose; format: cell-based, human; set-up: key: Viable: Compounds that did not appear to be cytotoxic toward differentiating DE cultures were marked as “viable”, meaning that the compound did not affect the survival, growth, proliferation or differentiation of the differentiated cells; details: at the lowest effective dose on either hESC or NPC
Text: as §1, §2

N#Cc1cc([N+](=O)[O-])c2sc(C(N)=O)[n+]([O-])c2c1 [BTO-1]
cell index (impedance); inhibitory or cytotoxic effect on the hESCs (hESCs (BG02)): significant decrease
Viability of Definitive Endoderm [1]: Viable
FOXA2 (HNF3β) expression ([2]; end of Stage 1, compared to DMSO control (FIG. 4C)): did not appear to have any effect
SOX17 gene expression ([2]; end of Stage 1, compared to DMSO control (FIG. 4D)): did not appear to have any effect
OCT4 and NANOG gene expression ([2]; end of Stage 1, compared to DMSO control (FIGS. 4A, 4B)): did not appear to have any effect

COc1ccc2c(c[n+](C)c3c4cc5c(cc4ccc23)OCO5)c1OC [Chelerythrine chloride]
cell index (impedance); inhibitory or cytotoxic effect on the hESCs (hESCs (BG02)): significant decrease
EC50 [3]: 1.4 µM

CC(Cc1ccc(O)c(O)c1)C(C)Cc1ccc(O)c(O)c1 (stereo not drawn) [Nordihydroguaiaretic acid from Larrea, Nordihydroguaiaretic acid from Larrea divaricata (creosote bush)]
cell index (impedance); inhibitory or cytotoxic effect on the hESCs (hESCs (BG02)): significant decrease
minimal effective concentration (hESCs): 5 µM
minimal effective concentration (NPCs): 5 µM
ACEA DE [4]: Viable

N#C/C(=C\c1ccc(O)c(O)c1)C(=O)Nc1ccccc1 [Tyrphostin AG 494]
cell index (impedance); inhibitory or cytotoxic effect on the hESCs (hESCs (BG02)): significant decrease
